Measurements published in EP0522504A1, “2-(2-substituted pyrrolidinylthio)-carbapenem derivatives” (Banyu Pharmaceutical Co., Ltd., priority 1991, dated 1993).
In brackets after ≈: the same amount, converted by molar mass. Like-named read-outs stand apart in the source and are kept apart here.

Columns and labels:
bacteria [1] = test: disc diffusion test (method of Bauer et al.), antibacterial potency relative to thienamycin; type: cell-based; details: ratio to thienamycin (= 1.0) of geometrical average MIC, larger value = higher activity
Description: The antibacterial activities of the compounds of the present invention described in the Examples, as representative examples of the compound of the present invention, were measured by a disc diffusion test by the method of Bauer et al. (Amer. J. Clin. Pathol., vol. 45, p. 493 (1966)). Thienamycin or imipenem was used as the internal standard.
MIC of each test compound was calculated from the diameter of the inhibition ring formed by the disc containing the test compound by using the calculation formula reported by Humphrey and Lightbown (J. Gen. Microbiol., vol. 7, p. 129 (1952)). For each microorganism, a geometrical average of MIC was obtained, and the activity ratio to thienamycin was calculated.
The antibacterial activities are represented by the ratio to thienamycin (= 1.0), whereby the larger the numerical value, the higher the activities.

bacteria [2] = test: in vitro antibacterial activities, agar plate dilution method (MIC); type: cell-based; details: Mueller Hinton agar, inoculum 10⁶ CFU/mℓ, 37°C for 16 hours
Description: One platinum loopful of each test microorganism incubated overnight in Mueller Hinton broth, was inoculated to Mueller Hinton agar (inoculum size: 10⁶ CFU/mℓ). Such culture media contained antibacterial agents in various concentrations. After incubation at 37°C for 16 hours, the minimum inhibitory concentrations (MIC: µg/mℓ) were measured.

DHP-I = target: T1, DHP-I (Homo sapiens, UniProt P16444); test: DHP-I susceptibility (method by Kropp et al.), ratio to imipenem; type: in vitro ADME
T1 sequence (P16444 17-385): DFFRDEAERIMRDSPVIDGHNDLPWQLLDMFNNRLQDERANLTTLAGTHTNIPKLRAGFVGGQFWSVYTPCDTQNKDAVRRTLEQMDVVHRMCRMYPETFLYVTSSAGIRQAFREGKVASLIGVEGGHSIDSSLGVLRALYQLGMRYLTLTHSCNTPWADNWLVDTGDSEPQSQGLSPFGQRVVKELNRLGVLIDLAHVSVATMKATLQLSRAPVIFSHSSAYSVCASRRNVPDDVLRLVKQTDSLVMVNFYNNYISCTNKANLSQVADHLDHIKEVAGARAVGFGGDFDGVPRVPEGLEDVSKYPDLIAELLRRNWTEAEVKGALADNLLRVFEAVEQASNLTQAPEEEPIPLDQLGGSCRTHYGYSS
From the text: The DHP-I susceptibility was quantitatively analyzed by the method by Kropp et al., Antimicrob. Agents Chemother., vol. 22, p.

[3] = Pseudomonas aeruginosa, 16 h, P. aeruginosa MB 5002, read-out: Minimum Inhibitory Concentration(MIC)
[4] = Pseudomonas aeruginosa, 16 h, P. aeruginosa MB 5178, read-out: Minimum Inhibitory Concentration(MIC)
[5] = Staphylococcus aureus, 209P / NIHJJC1, 16 h, S. aureus 209P NIHJ JC1, read-out: Minimum Inhibitory Concentration(MIC)
[6] = Staphylococcus aureus, 16 h, S. aureus BB 5939 (β-lactamase producing microorganism), read-out: Minimum Inhibitory Concentration(MIC)
[7] = Staphylococcus aureus, 16 h, S. aureus MB 4970, read-out: Minimum Inhibitory Concentration(MIC)
[8] = ratio to imipenem (=1.0), smaller value = higher stability

SMILES: C[C@@H](O)[C@H]1C(=O)N2C(C(=O)O)=C(S[C@@H]3CN[C@H](/C=C/C(N)=O)C3)[C@H](C)[C@H]12 [BO-2171, (1R,5S,6S)-2-[(2S,4S)-2-[(E)-2-(aminocarbonyl)vinyl]pyrrolidin-4-ylthio]-6-[(R)-1-hydroxyethyl]-1-methyl-1-carbapen-2-em-3-carboxylic acid, reference compound]
- Relative antibacterial potency to thienamycin (bacteria [1]; Meth-R S. aureus): 7.68
- Relative antibacterial potency to thienamycin (bacteria [1]; THM-R P.aeruginosa): 3.28
- MIC (bacteria [2]; [3]): 6.25 µg/mL (≈ 16.4 µM)
- MIC (bacteria [2]; [4]): 12.5 µg/mL (≈ 32.8 µM)
- MIC (bacteria [2]; [5]): 0.025 µg/mL (≈ 0.0655 µM)
- MIC (bacteria [2]; [6]): 6.25 µg/mL (≈ 16.4 µM)
- MIC (bacteria [2]; [7]): 0.025 µg/mL (≈ 0.0655 µM)
- DHP-I susceptibility (DHP-I): 0.3

SMILES: C[C@@H](O)[C@H]1C(=O)N2C(C(=O)O)=C(S[C@@H]3CN[C@H](/C=C\CN)C3)[C@H](C)[C@H]12 [Example 2, (1R,5S,6S)-2-[(2S,4S)-2-[(Z)-3-amino-1-propenyl]pyrrolidin-4-ylthio]-6-[(R)-1-hydroxyethyl]-1-methyl-1-carbapen-2-em-3-carboxylic acid]
- Relative antibacterial potency to thienamycin (bacteria [1]; Meth-R S. aureus): 12.9
- Relative antibacterial potency to thienamycin (bacteria [1]; THM-R P.aeruginosa): 15.2
- MIC (bacteria [2]; [3]): 0.78 µg/mL (≈ 2.12 µM)
- MIC (bacteria [2]; [4]): 1.56 µg/mL (≈ 4.25 µM)
- MIC (bacteria [2]; [5]): < 0.006 µg/mL
- MIC (bacteria [2]; [6]): 1.56 µg/mL (≈ 4.25 µM)
- MIC (bacteria [2]; [7]): 0.012 µg/mL (≈ 0.0327 µM)
- DHP-I susceptibility (DHP-I): <0.05

SMILES: C/C(=C/[C@@H]1C[C@H](SC2=C(C(=O)O)N3C(=O)[C@H]([C@@H](C)O)[C@H]3[C@H]2C)CN1)CN.Cl [Example 7, (1R,5S,6S)-2-[(2S,4S)-2-[(Z)-3-amino-2-methyl-1-propenyl]pyrrolidin-4-ylthio]-6-[(R)-1-hydroxyethyl]-1-methyl-1-carbapen-2-em-3-carboxylic acid hydrochloride]
- Relative antibacterial potency to thienamycin (bacteria [1]; Meth-R S. aureus): 13.5
- Relative antibacterial potency to thienamycin (bacteria [1]; THM-R P.aeruginosa): 31.3
- MIC (bacteria [2]; [3]): 0.78 µg/mL
- MIC (bacteria [2]; [4]): 1.56 µg/mL
- MIC (bacteria [2]; [5]): < 0.006 µg/mL
- MIC (bacteria [2]; [6]): 1.56 µg/mL
- MIC (bacteria [2]; [7]): < 0.006 µg/mL
- DHP-I susceptibility (DHP-I; [8]): <0.05

SMILES: CNC/C(C)=C\[C@@H]1C[C@H](SC2=C(C(=O)O)N3C(=O)[C@H]([C@@H](C)O)[C@H]3[C@H]2C)CN1.Cl [Example 9, (1R,5S,6S)-6-[(R)-1-hydroxyethyl]-2-[(2S,4S)-2-[(Z)-3-(N-methylamino)-2-methyl-1-propenyl]pyrrolidin-4-ylthio]-1-methyl-1-carbapen-2-em-3-carboxylic acid hydrochloride]
- Relative antibacterial potency to thienamycin (bacteria [1]; Meth-R S. aureus): 19.7
- Relative antibacterial potency to thienamycin (bacteria [1]; THM-R P.aeruginosa): 13.4
- MIC (bacteria [2]; [3]): 0.78 µg/mL
- MIC (bacteria [2]; [4]): 3.13 µg/mL
- MIC (bacteria [2]; [5]): < 0.006 µg/mL
- MIC (bacteria [2]; [6]): 1.56 µg/mL
- MIC (bacteria [2]; [7]): < 0.006 µg/mL
- DHP-I susceptibility (DHP-I; [8]): 0.10

SMILES: C[C@@H](O)[C@H]1C(=O)N2C(C(=O)O)=C(SCCN=CN)C[C@H]12 [imipenem, (5R,6S,8R)-3-[[2-(formimidoylamino)ethyl]thio]-6-(1-hydroxyethyl)-7-oxo-1-azabicyclo[3.2.0]hept-2-en-2-carboxylic acid monohydrate, reference compound]
- Relative antibacterial potency to thienamycin (bacteria [1]; Meth-R S. aureus): 2.57
- Relative antibacterial potency to thienamycin (bacteria [1]; THM-R P.aeruginosa): 2.0
- MIC (bacteria [2]; Pseudomonas aeruginosa, 16 h, read-out: Minimum Inhibitory Concentration(MIC), P. aeruginosa MB 5002): 1.56 µg/mL
- MIC (bacteria [2]; Pseudomonas aeruginosa, 16 h, read-out: Minimum Inhibitory Concentration(MIC), P. aeruginosa MB 5178): 25 µg/mL
- MIC (bacteria [2]; Staphylococcus aureus, 209P / NIHJJC1, 16 h, read-out: Minimum Inhibitory Concentration(MIC), S. aureus 209P NIHJ JC1): < 0.006 µg/mL
- MIC (bacteria [2]; Staphylococcus aureus, 16 h, read-out: Minimum Inhibitory Concentration(MIC), S. aureus BB 5939 (β-lactamase producing microorganism)): 6.25 µg/mL
- MIC (bacteria [2]; Staphylococcus aureus, 16 h, read-out: Minimum Inhibitory Concentration(MIC), S. aureus MB 4970): 0.012 µg/mL
- DHP-I susceptibility (DHP-I; [8]): 1.0
- DHP-I susceptibility, ratio to imipenem (DHP-I; the smaller the numerical value, the higher the stability): 1.0
